Assay results reported in patent US8959984B2, “Proteome-wide quantification of small molecule binding to cellular target proteins” (priority 2007, dated 2015).
Where two headings read alike, the source gives them in different places.

How the values were obtained:
NT5DC1 (IPI00177965) = target: T1, NT5DC1 (IPI00177965) (Homo sapiens, UniProt Q5TFE4); experiment: binding to VI16742 beads (HeLa lysate, SILAC MS)
T1 construct: endogenous in cells; host or cells: HeLa S3 cell lysate
T1 sequence (Q5TFE4 1-455): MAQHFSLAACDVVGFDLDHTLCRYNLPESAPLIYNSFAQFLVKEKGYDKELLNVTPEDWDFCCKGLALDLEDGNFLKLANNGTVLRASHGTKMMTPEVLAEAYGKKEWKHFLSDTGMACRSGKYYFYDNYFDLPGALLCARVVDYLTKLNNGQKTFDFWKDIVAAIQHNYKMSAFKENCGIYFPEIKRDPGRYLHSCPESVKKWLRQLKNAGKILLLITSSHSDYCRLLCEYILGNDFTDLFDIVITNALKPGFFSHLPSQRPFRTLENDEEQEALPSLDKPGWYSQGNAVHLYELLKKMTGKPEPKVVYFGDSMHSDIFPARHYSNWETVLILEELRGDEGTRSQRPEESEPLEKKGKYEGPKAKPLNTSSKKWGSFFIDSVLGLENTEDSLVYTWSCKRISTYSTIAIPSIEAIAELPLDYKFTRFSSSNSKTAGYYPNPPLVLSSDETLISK

BUB1 = target: T2, BUB1 (Homo sapiens, UniProt O43683); experiment: binding to immobilized V16742 (IVA1/IVA2, HeLa lysate, MS)
T2 construct: endogenous in cells; host or cells: HeLa S3
T2 sequence (O43683 whole entry): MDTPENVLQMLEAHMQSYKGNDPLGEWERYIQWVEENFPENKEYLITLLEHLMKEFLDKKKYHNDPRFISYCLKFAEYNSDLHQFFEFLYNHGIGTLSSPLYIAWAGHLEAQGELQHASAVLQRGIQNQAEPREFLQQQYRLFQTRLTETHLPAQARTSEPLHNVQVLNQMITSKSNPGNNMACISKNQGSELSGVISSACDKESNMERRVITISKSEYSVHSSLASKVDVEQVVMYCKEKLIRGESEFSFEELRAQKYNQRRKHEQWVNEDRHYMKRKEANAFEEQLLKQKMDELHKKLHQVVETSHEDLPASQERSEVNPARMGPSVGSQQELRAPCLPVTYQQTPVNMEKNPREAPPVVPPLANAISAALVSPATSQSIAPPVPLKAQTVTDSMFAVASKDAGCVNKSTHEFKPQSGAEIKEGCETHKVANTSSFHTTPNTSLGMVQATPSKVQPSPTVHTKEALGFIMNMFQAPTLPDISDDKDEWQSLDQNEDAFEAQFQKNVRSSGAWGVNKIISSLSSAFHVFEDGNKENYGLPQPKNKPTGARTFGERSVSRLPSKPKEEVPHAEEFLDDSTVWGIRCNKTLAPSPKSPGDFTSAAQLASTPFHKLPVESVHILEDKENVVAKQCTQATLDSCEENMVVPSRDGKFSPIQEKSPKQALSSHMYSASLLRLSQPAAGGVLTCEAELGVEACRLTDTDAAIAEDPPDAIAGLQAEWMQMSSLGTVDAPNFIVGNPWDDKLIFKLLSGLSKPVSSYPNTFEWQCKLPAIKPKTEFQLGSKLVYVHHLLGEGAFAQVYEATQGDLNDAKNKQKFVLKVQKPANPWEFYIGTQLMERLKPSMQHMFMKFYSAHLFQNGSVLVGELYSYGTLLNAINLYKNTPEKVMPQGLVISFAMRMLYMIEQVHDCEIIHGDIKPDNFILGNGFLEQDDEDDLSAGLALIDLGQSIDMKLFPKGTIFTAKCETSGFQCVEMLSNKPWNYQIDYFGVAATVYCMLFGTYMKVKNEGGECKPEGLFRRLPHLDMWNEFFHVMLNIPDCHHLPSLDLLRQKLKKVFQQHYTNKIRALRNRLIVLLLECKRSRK

PITSLRE = experiment: as above; parameters: species or system human
EphA2 = EphA2 (Homo sapiens, UniProt P29317); experiment: as above
Chain of EphA2 (P29317 24-976): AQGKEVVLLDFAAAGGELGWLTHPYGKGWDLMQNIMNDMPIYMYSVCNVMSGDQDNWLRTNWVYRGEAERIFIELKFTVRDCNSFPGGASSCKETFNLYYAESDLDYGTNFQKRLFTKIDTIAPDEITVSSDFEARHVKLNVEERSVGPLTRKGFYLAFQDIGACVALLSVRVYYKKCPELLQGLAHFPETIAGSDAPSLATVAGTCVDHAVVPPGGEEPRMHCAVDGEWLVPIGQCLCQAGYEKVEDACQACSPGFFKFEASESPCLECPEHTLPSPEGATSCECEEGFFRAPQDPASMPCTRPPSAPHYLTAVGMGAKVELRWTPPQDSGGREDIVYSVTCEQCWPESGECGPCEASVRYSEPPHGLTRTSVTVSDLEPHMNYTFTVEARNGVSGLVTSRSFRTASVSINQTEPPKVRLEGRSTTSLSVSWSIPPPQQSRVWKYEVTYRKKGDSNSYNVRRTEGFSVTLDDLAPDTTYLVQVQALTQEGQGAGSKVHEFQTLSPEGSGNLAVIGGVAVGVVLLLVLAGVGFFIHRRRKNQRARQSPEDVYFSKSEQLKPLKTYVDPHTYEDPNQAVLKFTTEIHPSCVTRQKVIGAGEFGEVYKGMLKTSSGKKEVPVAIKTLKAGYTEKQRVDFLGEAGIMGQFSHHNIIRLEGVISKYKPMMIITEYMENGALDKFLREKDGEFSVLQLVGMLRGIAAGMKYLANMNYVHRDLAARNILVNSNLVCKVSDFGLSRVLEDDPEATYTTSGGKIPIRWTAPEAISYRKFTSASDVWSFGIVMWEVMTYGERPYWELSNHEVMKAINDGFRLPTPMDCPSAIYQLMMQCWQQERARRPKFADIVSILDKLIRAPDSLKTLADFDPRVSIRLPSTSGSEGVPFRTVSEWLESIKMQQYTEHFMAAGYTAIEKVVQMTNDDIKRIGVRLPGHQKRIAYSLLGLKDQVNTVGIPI

MASTL = target: T3, MASTL (Homo sapiens, UniProt Q96GX5); experiment: as above
T3 construct: endogenous in cells; host or cells: HeLa S3
T3 sequence (Q96GX5 1-879): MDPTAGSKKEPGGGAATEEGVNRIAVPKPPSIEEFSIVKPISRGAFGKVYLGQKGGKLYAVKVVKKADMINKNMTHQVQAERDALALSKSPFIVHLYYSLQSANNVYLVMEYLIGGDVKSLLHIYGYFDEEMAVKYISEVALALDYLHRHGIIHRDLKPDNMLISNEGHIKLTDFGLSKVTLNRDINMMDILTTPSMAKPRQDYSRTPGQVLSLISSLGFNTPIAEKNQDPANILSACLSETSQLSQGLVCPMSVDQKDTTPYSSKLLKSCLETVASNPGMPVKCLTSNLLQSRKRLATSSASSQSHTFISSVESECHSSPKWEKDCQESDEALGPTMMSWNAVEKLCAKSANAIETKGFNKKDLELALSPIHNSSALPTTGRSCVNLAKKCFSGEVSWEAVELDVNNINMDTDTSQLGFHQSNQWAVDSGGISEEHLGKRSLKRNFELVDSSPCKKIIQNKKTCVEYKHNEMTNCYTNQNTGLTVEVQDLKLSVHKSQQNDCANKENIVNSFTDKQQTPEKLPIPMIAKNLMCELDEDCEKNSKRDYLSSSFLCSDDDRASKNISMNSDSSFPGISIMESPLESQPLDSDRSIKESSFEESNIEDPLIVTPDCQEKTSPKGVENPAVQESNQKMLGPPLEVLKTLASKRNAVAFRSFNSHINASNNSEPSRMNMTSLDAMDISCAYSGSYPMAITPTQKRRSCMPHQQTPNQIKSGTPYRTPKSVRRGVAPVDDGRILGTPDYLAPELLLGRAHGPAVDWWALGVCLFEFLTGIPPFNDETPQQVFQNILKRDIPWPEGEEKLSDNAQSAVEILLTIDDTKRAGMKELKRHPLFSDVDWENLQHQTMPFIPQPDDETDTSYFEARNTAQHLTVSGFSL

EphB4 = EphB4 (Homo sapiens, UniProt P54760); experiment: as above
Chain of EphB4 (P54760 16-987): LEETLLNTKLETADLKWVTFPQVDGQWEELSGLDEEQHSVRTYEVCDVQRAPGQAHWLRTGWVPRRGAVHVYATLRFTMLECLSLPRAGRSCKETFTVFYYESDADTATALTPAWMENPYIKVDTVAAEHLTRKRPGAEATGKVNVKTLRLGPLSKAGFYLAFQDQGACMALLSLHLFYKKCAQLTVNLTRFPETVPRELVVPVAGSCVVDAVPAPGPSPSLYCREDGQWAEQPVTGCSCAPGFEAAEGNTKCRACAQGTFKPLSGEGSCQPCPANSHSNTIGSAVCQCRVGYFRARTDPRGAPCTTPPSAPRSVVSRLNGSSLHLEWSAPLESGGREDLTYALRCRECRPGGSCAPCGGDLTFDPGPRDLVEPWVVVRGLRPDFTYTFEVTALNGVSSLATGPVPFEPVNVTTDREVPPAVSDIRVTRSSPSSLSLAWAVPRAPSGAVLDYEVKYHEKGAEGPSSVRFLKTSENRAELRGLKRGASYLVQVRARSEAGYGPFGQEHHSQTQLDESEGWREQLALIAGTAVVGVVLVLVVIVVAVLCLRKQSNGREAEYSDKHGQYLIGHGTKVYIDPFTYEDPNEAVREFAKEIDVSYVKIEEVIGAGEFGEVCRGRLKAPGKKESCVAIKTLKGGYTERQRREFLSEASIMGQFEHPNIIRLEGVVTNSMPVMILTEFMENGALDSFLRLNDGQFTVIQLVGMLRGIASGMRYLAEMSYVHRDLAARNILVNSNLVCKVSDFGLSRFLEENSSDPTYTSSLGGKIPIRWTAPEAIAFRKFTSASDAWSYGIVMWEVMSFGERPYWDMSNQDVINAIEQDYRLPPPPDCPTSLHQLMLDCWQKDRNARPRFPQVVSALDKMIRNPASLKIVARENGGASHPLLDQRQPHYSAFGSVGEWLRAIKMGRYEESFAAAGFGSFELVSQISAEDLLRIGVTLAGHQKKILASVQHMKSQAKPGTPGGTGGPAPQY

SNRPG = SNRPG (Homo sapiens, UniProt P62308)
Chain of SNRPG (P62306 whole entry): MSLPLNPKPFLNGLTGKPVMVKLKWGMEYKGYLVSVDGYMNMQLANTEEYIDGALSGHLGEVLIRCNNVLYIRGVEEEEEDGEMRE
Chain of SNRPG (P62304 whole entry, further chain): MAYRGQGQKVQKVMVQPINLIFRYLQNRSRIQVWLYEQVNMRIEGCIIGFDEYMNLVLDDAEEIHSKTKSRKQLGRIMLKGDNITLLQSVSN
Chain of SNRPG (P62308 whole entry): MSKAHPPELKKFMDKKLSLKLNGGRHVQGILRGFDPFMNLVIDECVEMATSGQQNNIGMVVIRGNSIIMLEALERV

[1] = single Kd value, obtained from only one experiment

## CC(C)n1c(=O)ccc2cnc(Nc3ccc(OCCN)cc3)nc21 [V16742]
NT5DC1 (IPI00177965); control beads vs first incubation
  rAVERAGE (CTRL/1 INC): 0.07
NT5DC1 (IPI00177965); immobilized VI16742
  Ki: 94.8 µM
NT5DC1 (IPI00177965); second vs first incubation
  rAVERAGE (2 INC/1 INC): 0.65
BUB1; Experiment 1, 1.87 μM 16742
  Percent bound at various 16742 conc: 2.46%
BUB1; Experiment 1, 8.74 μM 16742
  Percent bound at various 16742 conc: 11.95%
BUB1; Experiment 1, 52 μM 16742
  Percent bound at various 16742 conc: 50.46%
BUB1; Experiment 2, 52 μM 16742
  Percent bound at various 16742 conc: 47.87%
BUB1; [1]
  Kd: 53.4 µM
PITSLRE; Experiment 1, 1.87 μM 16742
  Percent bound at various 16742 conc: 1.13%
PITSLRE; Experiment 1, 8.74 μM 16742
  Percent bound at various 16742 conc: 12.03%
PITSLRE; Experiment 1, 52 μM 16742
  Percent bound at various 16742 conc: 49.06%
PITSLRE; Experiment 1, read-out: Kd
  Kd: 56.1 µM
PITSLRE; Experiment 2, 1.87 μM 16742
  Percent bound at various 16742 conc: 2.00%
PITSLRE; Experiment 2, 8.74 μM 16742
  Percent bound at various 16742 conc: 4.78%
PITSLRE; Experiment 2, 52 μM 16742
  Percent bound at various 16742 conc: 46.71%
PITSLRE; Experiment 2, read-out: Kd
  Kd: 66.7 µM
PITSLRE; average of two experiments, read-out: Kd Avg
  Kd: 61.4 µM
EphA2
  Kd: 58.1 µM
EphA2; EphA2, Experiment 1, 1.87 μM 16742
  Percent bound at various 16742 conc: 3.91%
EphA2; EphA2, Experiment 1, 8.74 μM 16742
  Percent bound at various 16742 conc: 13.88%
EphA2; EphA2, Experiment 1, 52 μM 16742
  Percent bound at various 16742 conc: 54.66%
EphA2; EphA2, Experiment 2, 1.87 μM 16742
  Percent bound at various 16742 conc: 2.12%
EphA2; EphA2, Experiment 2, 8.74 μM 16742
  Percent bound at various 16742 conc: 7.66%
EphA2; EphA2, Experiment 2, 52 μM 16742
  Percent bound at various 16742 conc: 43.73%
EphA2; Kd, EphA2, Experiment 1
  Kd: 45.3 µM
EphA2; Kd, EphA2, Experiment 2
  Kd: 70.8 µM
MASTL; Experiment 1, 1.87 μM 16742
  Percent bound at various 16742 conc: 0.55%
MASTL; Experiment 1, 8.74 μM 16742
  Percent bound at various 16742 conc: 9.59%
MASTL; Experiment 1, 52 μM 16742
  Percent bound at various 16742 conc: 51.63%
MASTL; Experiment 2, 52 μM 16742
  Percent bound at various 16742 conc: 62.29%
MASTL; [1]
  Kd: 53.8 µM

## CC(C)n1c(=O)ccc2cnc(Nc3ccc(OCCN)cc3)nc21 [compound 16742]
EphB4; EXPERIMENT 1
  Percent bound at 1.87 μM 16742 conc: 3.95%
  Percent bound at 8.74 μM 16742 conc: 18.14%
  Percent bound at 52 μM 16742 conc: 61.05%
EphB4; EXPERIMENT 1, read-out: Kd
  Kd: 35.2 µM
EphB4; EXPERIMENT 2
  Percent bound at 1.87 μM 16742 conc: 2.71%
  Percent bound at 8.74 μM 16742 conc: 12.85%
  Percent bound at 52 μM 16742 conc: 50.80%
EphB4; EXPERIMENT 2, read-out: Kd
  Kd: 52.1 µM
EphB4; read-out: Kd Avg
  Kd: 43.6 µM

## COc1cc2ncnc(Nc3ccc(F)c(Cl)c3)c2cc1OCCCN1CCOCC1 [gefitinib]
SNRPG
  rAVERAGE (10 nM/0 nM Gef.): 0.65
  rAVERAGE (100 nM/0 nM Gef.): 1.09
  rAVERAGE (1000 nM/0 nM Gef.): 0.72
  rAVERAGE (10000 nM/0 nM Gef.): 0.89
